Test results as given in the NIST ThermoML archive (doi:10.1021/je0504515).

Assay: xn = mol fraction of the nth substance listed
Settings: Liquid; for electrical conductivity: Radiometer CDM 210 Meterlab conductimeter with a CDC 745-9 cell

CCCCn1cc[n+](C)c1.F[B-](F)(F)F [1-butyl-3-methylimidazolium tetrafluoroborate] + CN(C)C=O
295.2 K, 101 kPa
Settings	electrical conductivity [S/m]	viscosity [mPa·s]
x2 = 0	0.375	122.9
x2 = 0.088	0.464	–
x2 = 0.14	–	65.6
x2 = 0.161	0.551	–
x2 = 0.224	0.629	–
x2 = 0.23	–	45.4
x2 = 0.324	0.79	–
x2 = 0.33	–	26.3
x2 = 0.366	0.871	–
x2 = 0.434	1.03	–
x2 = 0.44	–	16.1
x2 = 0.49	1.17	–
x2 = 0.53	–	11.2
x2 = 0.535	1.3	–
x2 = 0.606	1.55	–
x2 = 0.61	–	9.8
x2 = 0.658	1.72	–
x2 = 0.728	2.01	–
x2 = 0.73	–	4.7
x2 = 0.793	2.31	–
x2 = 0.828	2.4	–
x2 = 0.852	2.44	–
x2 = 0.906	2.44	–
x2 = 0.957	1.83	–
x2 = 0.973	1.39	–
x2 = 0.981	1.13	–

Cc1cccnc1 [3-methylpyridine] + CCCC[N+]1(C)CCCC1.O=S(=O)([N-]S(=O)(=O)C(F)(F)F)C(F)(F)F
295.2 K, 101 kPa
Settings	electrical conductivity [S/m]
x1 = 0.029	0.353
x1 = 0.057	0.335
x1 = 0.095	0.367
x1 = 0.153	0.416
x1 = 0.194	0.445
x1 = 0.249	0.467
x1 = 0.338	0.522
x1 = 0.387	0.578
x1 = 0.439	0.606
x1 = 0.49	0.635
x1 = 0.54	0.686
x1 = 0.591	0.726
x1 = 0.64	0.761
x1 = 0.691	0.793
x1 = 0.743	0.814
x1 = 0.794	0.808
x1 = 0.845	0.771
x1 = 0.896	0.665

CCCC[N+]1(C)CCCC1.O=S(=O)([N-]S(=O)(=O)C(F)(F)F)C(F)(F)F + Cc1cccnc1
Settings	electrical conductivity [S/m]
295.2 K, 101 kPa, x2 = 0	0.28

CCCCCC[N+]1(C)CCCC1.O=S(=O)([N-]S(=O)(=O)C(F)(F)F)C(F)(F)F + CN(C)C=O
Settings	electrical conductivity, 101 kPa [S/m]	viscosity, 101.3 kPa [mPa·s]
293.2 K, x2 = 0.1	0.155	–
293.2 K, x2 = 0.5	0.382	–
293.2 K, x2 = 0.9	1.68	–
295.2 K, x2 = 0	–	119.8
295.2 K, x2 = 0.1	0.17	–
295.2 K, x2 = 0.104	–	83
295.2 K, x2 = 0.205	–	56.7
295.2 K, x2 = 0.301	–	42.9
295.2 K, x2 = 0.402	–	28.1
295.2 K, x2 = 0.5	0.418	19.6
295.2 K, x2 = 0.599	–	12
295.2 K, x2 = 0.7	–	5.5
295.2 K, x2 = 0.9	1.74	–
298.2 K, x2 = 0.1	0.191	–
298.2 K, x2 = 0.5	0.47	–
298.2 K, x2 = 0.9	1.82	–
300.2 K, x2 = 0	–	96.8
300.2 K, x2 = 0.104	–	67.5
300.2 K, x2 = 0.205	–	47.2
300.2 K, x2 = 0.301	–	36.4
300.2 K, x2 = 0.402	–	24
300.2 K, x2 = 0.5	–	17
300.2 K, x2 = 0.599	–	10.5
300.2 K, x2 = 0.7	–	5.1
301.2 K, x2 = 0.1	0.211	–
301.2 K, x2 = 0.5	0.522	–
301.2 K, x2 = 0.9	1.9	–
303.2 K, x2 = 0.1	0.224	–
303.2 K, x2 = 0.5	0.557	–
303.2 K, x2 = 0.9	1.96	–
305.2 K, x2 = 0	–	79.6
305.2 K, x2 = 0.1	0.239	–
305.2 K, x2 = 0.104	–	55.8
305.2 K, x2 = 0.205	–	39.8
305.2 K, x2 = 0.301	–	30.8
305.2 K, x2 = 0.402	–	20.9
305.2 K, x2 = 0.5	0.592	14.7
305.2 K, x2 = 0.599	–	9.3
305.2 K, x2 = 0.7	–	4.7
305.2 K, x2 = 0.9	2.02	–
308.2 K, x2 = 0.1	0.26	–
308.2 K, x2 = 0.5	0.645	–
308.2 K, x2 = 0.9	2.1	–
310.2 K, x2 = 0	–	64.8
310.2 K, x2 = 0.104	–	45.9
310.2 K, x2 = 0.205	–	33.6
310.2 K, x2 = 0.301	–	26.3
310.2 K, x2 = 0.402	–	17.9
310.2 K, x2 = 0.5	–	13
310.2 K, x2 = 0.599	–	8.4
310.2 K, x2 = 0.7	–	4.3
311.2 K, x2 = 0.1	0.28	–
311.2 K, x2 = 0.5	0.697	–
311.2 K, x2 = 0.9	2.19	–
313.2 K, x2 = 0.1	0.295	–
313.2 K, x2 = 0.5	0.732	–
313.2 K, x2 = 0.9	2.24	–
315.2 K, x2 = 0	–	54.2
315.2 K, x2 = 0.1	0.31	–
315.2 K, x2 = 0.104	–	38
315.2 K, x2 = 0.205	–	28.8
315.2 K, x2 = 0.301	–	22.6
315.2 K, x2 = 0.402	–	15.7
315.2 K, x2 = 0.5	0.767	11.4
315.2 K, x2 = 0.599	–	7.5
315.2 K, x2 = 0.7	–	3.9
315.2 K, x2 = 0.9	2.31	–
318.2 K, x2 = 0.1	0.33	–
318.2 K, x2 = 0.5	0.819	–
318.2 K, x2 = 0.9	2.39	–
320.2 K, x2 = 0	–	45.9
320.2 K, x2 = 0.104	–	32.4
320.2 K, x2 = 0.205	–	24.8
320.2 K, x2 = 0.301	–	19.5
320.2 K, x2 = 0.402	–	13.9
320.2 K, x2 = 0.5	–	10
320.2 K, x2 = 0.599	–	6.8
320.2 K, x2 = 0.7	–	3.6
321.2 K, x2 = 0.1	0.351	–
321.2 K, x2 = 0.5	0.871	–
321.2 K, x2 = 0.9	2.48	–
323.2 K, x2 = 0.1	0.365	–
323.2 K, x2 = 0.5	0.91	–
323.2 K, x2 = 0.9	2.54	–
325.2 K, x2 = 0	–	38.9
325.2 K, x2 = 0.104	–	27.6
325.2 K, x2 = 0.205	–	21.8
325.2 K, x2 = 0.301	–	16.9
325.2 K, x2 = 0.402	–	12
325.2 K, x2 = 0.5	–	9.1
325.2 K, x2 = 0.599	–	6.2
325.2 K, x2 = 0.7	–	3.4

CCCCn1cc[n+](C)c1.F[B-](F)(F)F [1-butyl-3-methylimidazolium tetrafluoroborate] + Cc1cccnc1
Settings	electrical conductivity [S/m]
295.2 K, 101 kPa, x2 = 0	0.378

CCCC[N+]1(C)CCCC1.O=S(=O)([N-]S(=O)(=O)C(F)(F)F)C(F)(F)F + CN(C)C=O
295.2 K
Settings	electrical conductivity, 101 kPa [S/m]	viscosity, 101.3 kPa [mPa·s]
x2 = 0	0.28	80
x2 = 0.13	–	40.3
x2 = 0.144	0.387	–
x2 = 0.24	–	29.6
x2 = 0.252	0.495	–
x2 = 0.33	–	21.7
x2 = 0.336	0.612	–
x2 = 0.403	0.74	–
x2 = 0.45	–	14.4
x2 = 0.457	0.78	–
x2 = 0.519	0.981	–
x2 = 0.54	–	9.9
x2 = 0.574	1.1	–
x2 = 0.637	1.32	–
x2 = 0.64	–	6.6
x2 = 0.716	1.6	–
x2 = 0.74	–	3.7
x2 = 0.773	1.85	–
x2 = 0.835	2.1	–
x2 = 0.871	2.17	–
x2 = 0.894	2.17	–
x2 = 0.91	2.12	–
x2 = 0.931	1.98	–
x2 = 0.953	1.7	–
x2 = 0.971	1.31	–
x2 = 0.981	1.01	–

Cc1cccnc1 [3-methylpyridine] + CCCCn1cc[n+](C)c1.F[B-](F)(F)F
295.2 K, 101 kPa
Settings	electrical conductivity [S/m]
x1 = 0.061	0.44
x1 = 0.114	0.476
x1 = 0.162	0.52
x1 = 0.205	0.555
x1 = 0.244	0.588
x1 = 0.279	0.616
x1 = 0.34	0.674
x1 = 0.392	0.72
x1 = 0.474	0.802
x1 = 0.568	0.845
x1 = 0.659	0.915
x1 = 0.721	0.928
x1 = 0.763	0.936
x1 = 0.798	0.94
x1 = 0.838	0.838
x1 = 0.866	0.747
x1 = 0.906	0.59
x1 = 0.928	0.474
